{"source": "patent US20090030086A1", "about": "“ANTIMICROBIAL AGENTS” (priority 2005, published 2009)", "key": {"P. acnes NCTC 737 [1]": {"system": "P. acnes NCTC 737", "assay": "Disc diffusion assay (DDA)", "assay_type": "cell-based, Propionibacterium acnes", "conditions": "P. acnes NCTC 737, unsupplemented agar, 200 μg per disc (2,6-dimethoxy-p-benzoquinone 100 μg)"}, "P. acnes NCTC 737 [2]": {"system": "P. acnes NCTC 737", "assay": "Supplemented disc diffusion assay", "assay_type": "cell-based, Propionibacterium acnes", "conditions": "P. acnes NCTC 737, 200 μg per disc (2,6-dimethoxy-p-benzoquinone 100 μg); for zone of inhibition at 200 µg/disc: Cutibacterium acnes, NCTC737, 72 h", "outline": "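Propionibacterium discs loaded with 200 μg compound on Wilkins-Chalgren Anaerobe agar, pH 6.0, supplemented with Tween 80 (1% v/v) and NaCl (100 mM); anaerobic incubation at 37 °C for 72 h. Inhibition zone diameter measured by automated zone sizer.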"}, "S. aureus ATCC 29213 [3]": {"system": "S. aureus ATCC 29213", "assay": "Supplemented disc diffusion assay", "assay_type": "cell-based, Staphylococcus aureus", "conditions": "S. aureus ATCC 29213, 200 μg per disc (thymoquinone 50 μg, 2,6-dimethoxy-p-benzoquinone 100 μg); for zone of inhibition at 200 µg/disc: Staphylococcus aureus, ATCC29213, 24 h", "outline": "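Paper discs loaded with compound (200 μg per disc for most assays) placed on inoculated Mueller-Hinton agar, pH 7.2, supplemented with 5% v/v defibrinated horse blood, 1% v/v Tween 80 and 100 mM NaCl. Aerobic incubation at 37° C for 24 h; inhibition zone diameter measured.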"}, "P. acnes NCTC 737 [4]": {"system": "P. acnes NCTC 737", "assay": "MBC assay", "assay_type": "cell-based, Propionibacterium acnes", "conditions": "P. acnes NCTC 737", "outline": "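Plates were then checked visually for growth. The MBC is the lowest lethal concentration; cultures were grown on Wilkins-Chalgren Anaerobe Medium at pH 6.0.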"}, "S. aureus ATCC 29213 [5]": {"system": "S. aureus ATCC 29213", "assay": "MBC assay", "assay_type": "cell-based, Staphylococcus aureus", "outline": "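Follows an MIC assay; samples sub-cultured onto non-selective agar and inspected visually for growth to give the minimum lethal concentration. Culture on Mueller-Hinton medium, pH 7.2, aerobic, 37° C, 24 hours.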"}, "P. acnes NCTC 737 [6]": {"system": "P. acnes NCTC 737", "assay": "MIC assay", "assay_type": "cell-based, Propionibacterium acnes", "conditions": "P. acnes NCTC 737, Wilkins-Chalgren broth pH 6.0, anaerobic, 37° C., 72 hours", "outline": "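Broth microdilution in Wilkins-Chalgren Anaerobe broth pH 6.0, inoculated with freshly grown P. acnes NCTC 737 and incubated anaerobically at 37° C for 72 hours. MIC is the lowest compound concentration leaving the well visually clear, read on a light box. Run in duplicate with medium-only and solvent-plus-inoculum controls.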"}, "S. aureus ATCC 29213 [7]": {"system": "S. aureus ATCC 29213", "assay": "Disc diffusion assay (DDA)", "assay_type": "cell-based, Staphylococcus aureus", "conditions": "S. aureus ATCC 29213, unsupplemented agar, 200 μg per disc (thymoquinone 50 μg, 2,6-dimethoxy-p-benzoquinone 100 μg)", "outline": "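Paper discs loaded with test compound (usually 200 μg/disc), solvent evaporated ≥30 min, placed on inoculated Mueller-Hinton agar pH 7.2. Incubated aerobically at 37 °C for 24 h; inhibition zone diameter measured and area calculated as π(D/2)^2.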"}, "S. aureus ATCC 29213 [8]": {"system": "S. aureus ATCC 29213", "assay": "MIC assay", "assay_type": "cell-based, Staphylococcus aureus", "conditions": "S. aureus ATCC 29213, Mueller-Hinton broth pH 7.2, aerobic, 37° C., 24 hours", "outline": "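Broth microdilution in Mueller-Hinton broth at pH 7.2, incubated aerobically at 37 °C for 24 h and run in duplicate with medium-only and solvent/inoculum controls. The MIC was the lowest concentration whose well stayed visibly clear.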"}, "[9]": {"conditions": "Tween 80 at 1% v/v, read-out: DDA + lipid"}, "[10]": {"conditions": "sodium chloride 100 mM, read-out: DDA + salt"}}, "note": "Read-outs that look alike come from different tables or passages of the source."}
{"smiles": "Oc1c(F)c(F)c(O)c(F)c1F", "note": "[tetrafluoro-p-hydroquinone]", "values": [{"measurement": "DDA (diameter of zone of inhibition)", "setting": "P. acnes NCTC 737 [1]", "result": 33.86, "unit": "mm"}, {"measurement": "DDA + lipid", "setting": "P. acnes NCTC 737 [2]; Tween 80 at 1% v/v", "result": 0.0, "unit": "mm"}, {"measurement": "DDA + salt", "setting": "P. acnes NCTC 737 [2]; sodium chloride 100 mM", "result": 36.35, "unit": "mm"}, {"measurement": "DDA + lipid", "setting": "S. aureus ATCC 29213 [3]; Tween 80 at 1% v/v", "result": 9.38, "unit": "mm"}, {"measurement": "DDA + blood", "setting": "S. aureus ATCC 29213 [3]; defibrinated horse blood 5% v/v", "result": 0.0, "unit": "mm"}, {"measurement": "DDA + salt", "setting": "S. aureus ATCC 29213 [3]; sodium chloride 100 mM", "result": 11.25, "unit": "mm"}, {"measurement": "MBC", "setting": "P. acnes NCTC 737 [4]", "result": 125, "unit": "µg/mL"}, {"measurement": "MIC/MBC ratio", "setting": "P. acnes NCTC 737 [4]", "result": 0.5}, {"measurement": "MBC", "setting": "S. aureus ATCC 29213 [5]", "result": 125, "unit": "µg/mL"}, {"measurement": "MIC/MBC ratio", "setting": "S. aureus ATCC 29213 [5]", "result": 1}, {"measurement": "MIC", "setting": "P. acnes NCTC 737 [6]", "result": 62.5, "unit": "µg/mL"}, {"measurement": "DDA (diameter of zone of inhibition)", "setting": "S. aureus ATCC 29213 [7]", "result": 10.83, "unit": "mm"}, {"measurement": "MIC", "setting": "S. aureus ATCC 29213 [8]", "result": 125, "unit": "µg/mL"}]}
{"smiles": "Cc1cc(O)c(C(C)C)cc1O", "note": "[thymohydroquinone]", "values": [{"measurement": "zone of inhibition at 200 µg/disc", "setting": "P. acnes NCTC 737 [1]; Cutibacterium acnes, NCTC737, read-out: DDA (diameter of zone of inhibition)", "result": 9.82, "unit": "mm"}, {"measurement": "zone of inhibition at 200 µg/disc", "setting": "P. acnes NCTC 737 [2]; [9]", "result": 0, "unit": "mm"}, {"measurement": "zone of inhibition at 200 µg/disc", "setting": "P. acnes NCTC 737 [2]; [10]", "result": 9.61, "unit": "mm"}, {"measurement": "zone of inhibition at 200 µg/disc", "setting": "S. aureus ATCC 29213 [3]; [9]", "result": 41.7, "unit": "mm"}, {"measurement": "zone of inhibition at 200 µg/disc", "setting": "S. aureus ATCC 29213 [3]; defibrinated horse blood 5% v/v, read-out: DDA + blood", "result": 10.3, "unit": "mm"}, {"measurement": "zone of inhibition at 200 µg/disc", "setting": "S. aureus ATCC 29213 [3]; [10]", "result": 57.6, "unit": "mm"}, {"measurement": "MBC", "setting": "P. acnes NCTC 737 [4]; Cutibacterium acnes, NCTC737, read-out: MBC", "result": 31.2, "unit": "µg/mL"}, {"measurement": "MIC/MBC ratio", "setting": "P. acnes NCTC 737 [4]", "result": 1}, {"measurement": "MIC/MBC ratio", "setting": "S. aureus ATCC 29213 [5]", "result": 0.5}, {"measurement": "MBC", "setting": "S. aureus ATCC 29213 [5]; Staphylococcus aureus, ATCC29213, read-out: MBC", "result": 15.6, "unit": "µg/mL"}, {"measurement": "MIC", "setting": "P. acnes NCTC 737 [6]; Cutibacterium acnes, NCTC737, read-out: MIC", "result": 31.2, "unit": "µg/mL"}, {"measurement": "zone of inhibition at 200 µg/disc", "setting": "S. aureus ATCC 29213 [7]; Staphylococcus aureus, ATCC29213, read-out: DDA (diameter of zone of inhibition)", "result": 57.6, "unit": "mm"}, {"measurement": "MIC", "setting": "S. aureus ATCC 29213 [8]; Staphylococcus aureus, ATCC29213, read-out: MIC", "result": 7.8, "unit": "µg/mL"}]}
